Source: ChEMBL document CHEMBL1201862, “PubChem BioAssay data set” (2004)
Where a name gives a salt, the structure may show the parent alone.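 Grown in 96-well plates, cells were treated for 48 hours with each compound at five concentrations. Insufficient inhibition: endpoint recorded as highest concentration tested. GI50 marks 50% less growth.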 Active and inactive are the calls of the source. Cut-off read from the data, not from the text of the source: active = GI50 up to about 1.1 µM and inactive = higher.

Columns and labels:
Assay in all cases: NCI anticancer screen, dose series, 48 h
ACHN = tested on: ACHN
HCT-116 = tested on: HCT-116
HCT-15 = tested on: HCT-15
HOP-92 = tested on: HOP-92
IGROV-1 = tested on: IGROV-1
LOX IMVI = tested on: LOX IMVI
LXFL 529 = tested on: LXFL 529
NCI-H23 = tested on: NCI-H23
NCI-H460 = tested on: NCI-H460
OVCAR-4 = tested on: OVCAR-4
RXF 393 = tested on: RXF 393
SF-295 = tested on: SF-295
SN12C = tested on: SN12C
UACC-257 = tested on: UACC-257
UACC-62 = tested on: UACC-62
UO-31 = tested on: UO-31
DU-145 = tested on: DU-145
MCF7 = tested on: MCF7
MDA-N = tested on: MDA-N
T47D = tested on: T47D

| SMILES | GI50 (ACHN) | GI50 (HCT-116) | GI50 (HCT-15) [µM] | GI50 (HOP-92) | GI50 (IGROV-1) | GI50 (LOX IMVI) | GI50 (LXFL 529) | GI50 (NCI-H23) | GI50 (NCI-H460) | GI50 (OVCAR-4) | GI50 (RXF 393) | GI50 (SF-295) | GI50 (SN12C) | GI50 (UACC-257) | GI50 (UACC-62) | GI50 (UO-31) | GI50 (DU-145) | GI50 (MCF7) | GI50 (MDA-N) | GI50 (T47D) |
| --- | --- | --- | --- | --- | --- | --- | --- | --- | --- | --- | --- | --- | --- | --- | --- | --- | --- | --- | --- | --- |
| CCN1CCC(O)(c2ccccc2)C(C(=O)c2ccccc2)C1 (stereo unspecified) | 16.7 µM (inactive) | 17.1 µM (inactive) | 26.9 | 17.7 µM (inactive) | > 100 µM (inactive) | 17.4 µM (inactive) | 15.6 µM (inactive) | > 53 µM (inactive) | > 100 µM (inactive) | 18.2 µM (inactive) | 15.5 µM (inactive) | > 65.6 µM (inactive) | 20.1 µM (inactive) | 19.6 µM (inactive) | > 45.3 µM (inactive) | > 46.2 µM (inactive) |  |  |  |  |
| S=c1sc2sc(=S)sc2s1 | > 100 µM (inactive) | 30.1 µM (inactive) | 26.1 | 57.9 µM (inactive) | > 100 µM (inactive) | 33.5 µM (inactive) | 13.6 µM (inactive) |  | 22.4 µM (inactive) | > 100 µM (inactive) | 35.6 µM (inactive) | 20.6 µM (inactive) | 96.8 µM (inactive) | > 100 µM (inactive) | 37.2 µM (inactive) | 30 µM (inactive) |  |  |  |  |
| COC1=C(OC)CCC(/C(C#N)=C/c2ccc(OC)c(OC)c2)=C1 | > 100 µM (inactive) | > 100 µM (inactive) | > 100 | 49.8 µM (inactive) | 56.4 µM (inactive) | > 100 µM (inactive) | > 100 µM (inactive) | 79.1 µM (inactive) | > 100 µM (inactive) | > 100 µM (inactive) | 36.7 µM (inactive) | 15.9 µM (inactive) | > 100 µM (inactive) | > 100 µM (inactive) | > 100 µM (inactive) | 36.1 µM (inactive) |  |  |  |  |
| CCCCCCCCCCCCCC1CCC(CC)N1 (stereo unspecified) | 7.23 µM (inactive) | 15.6 µM (inactive) | 6.52 | 16.2 µM (inactive) | 20.9 µM (inactive) | 17.5 µM (inactive) | 18.2 µM (inactive) | 18.6 µM (inactive) | 2.12 µM (inactive) | 17.4 µM (inactive) | 17.9 µM (inactive) | 18.6 µM (inactive) | 11.3 µM (inactive) | 20.7 µM (inactive) | 6.98 µM (inactive) | 14.2 µM (inactive) |  |  |  |  |
| CC(=O)OC1COC(n2ccc3cc(Br)c([N+](=O)[O-])cc32)C(OC(C)=O)C1OC(C)=O (stereo unspecified) | 27.6 µM (inactive) |  | 30.9 | 9.44 µM (inactive) | 30.3 µM (inactive) | 20.1 µM (inactive) | 20 µM (inactive) | 23.3 µM (inactive) | 22 µM (inactive) | > 10 µM (inactive) | 24.7 µM (inactive) | 20.9 µM (inactive) | 30.8 µM (inactive) | 19.2 µM (inactive) | 17.6 µM (inactive) | 12.6 µM (inactive) |  |  |  |  |
| CC1(Cl)C(=O)NC(=O)N(C2CC(N=[N+]=[N-])C(CO)O2)C1N=[N+]=[N-] (stereo unspecified) | > 100 µM (inactive) |  | > 100 | > 100 µM (inactive) | > 100 µM (inactive) | > 100 µM (inactive) | > 100 µM (inactive) | > 100 µM (inactive) | > 100 µM (inactive) | > 100 µM (inactive) | > 100 µM (inactive) | > 100 µM (inactive) | > 100 µM (inactive) | > 100 µM (inactive) | > 100 µM (inactive) | > 100 µM (inactive) |  |  |  |  |
| CC(=O)/C(=C\c1ccco1)C(=O)Nc1ccccc1 | > 100 µM (inactive) | > 100 µM (inactive) | > 100 | > 100 µM (inactive) | > 100 µM (inactive) | > 100 µM (inactive) | > 100 µM (inactive) | > 100 µM (inactive) | > 100 µM (inactive) | > 100 µM (inactive) | > 100 µM (inactive) | > 100 µM (inactive) | > 100 µM (inactive) | > 100 µM (inactive) | > 100 µM (inactive) | > 100 µM (inactive) |  |  |  |  |
| Cc1ccc(C(=O)Oc2ccccc2)cc1/N=N/N(C)C | > 100 µM (inactive) | > 100 µM (inactive) | > 70.3 | > 100 µM (inactive) | > 100 µM (inactive) | 59.8 µM (inactive) | > 100 µM (inactive) | > 58.6 µM (inactive) | > 100 µM (inactive) | > 86.9 µM (inactive) |  | > 69.3 µM (inactive) | > 100 µM (inactive) | > 100 µM (inactive) | > 100 µM (inactive) | > 100 µM (inactive) | > 100 µM (inactive) | 36.8 µM (inactive) | > 100 µM (inactive) | 71.8 µM (inactive) |
| O=C/C1=C/C2=Cc3ccccc3C=C(/C=C(/C=O)C1)C2 | > 100 µM (inactive) | 19.4 µM (inactive) | 31.4 | 27.7 µM (inactive) | > 100 µM (inactive) | 33.9 µM (inactive) | 30.3 µM (inactive) | 32.9 µM (inactive) | 81.1 µM (inactive) | 46.7 µM (inactive) | 28.1 µM (inactive) | 29 µM (inactive) | 42.6 µM (inactive) | 30.9 µM (inactive) | 73.6 µM (inactive) | 34 µM (inactive) |  |  |  |  |
| O=C1OC(c2ccccc2)=N/C1=C/N1CCCC1C(=O)O (stereo unspecified) | > 100 µM (inactive) | > 100 µM (inactive) | > 100 | > 100 µM (inactive) | > 100 µM (inactive) | > 100 µM (inactive) | > 100 µM (inactive) | > 100 µM (inactive) | > 100 µM (inactive) | > 100 µM (inactive) | > 100 µM (inactive) | > 100 µM (inactive) |  | > 100 µM (inactive) | > 100 µM (inactive) | > 100 µM (inactive) |  |  |  |  |
| NNC(=O)C1CCC(=O)N1S(=O)(=O)c1ccccc1 (stereo unspecified) | > 100 µM (inactive) | > 100 µM (inactive) | > 100 | > 100 µM (inactive) | > 100 µM (inactive) | > 100 µM (inactive) | > 100 µM (inactive) | > 100 µM (inactive) | > 100 µM (inactive) | > 100 µM (inactive) | > 100 µM (inactive) | > 100 µM (inactive) | > 100 µM (inactive) | > 100 µM (inactive) | > 100 µM (inactive) | > 100 µM (inactive) |  |  |  |  |
| CO[C@@H]1C=C[C@@]23c4cc5c(cc4CN(C[C@@H]2O)[C@H]3C1)OCO5 [(+)-HAEMANTHAMINE] | 5.13 µM (inactive) |  | 17.4 | 14.3 µM (inactive) | 23.1 µM (inactive) | 6.38 µM (inactive) | 13.6 µM (inactive) | 23.6 µM (inactive) | 15.7 µM (inactive) | 3.85 µM (inactive) | 18.7 µM (inactive) | 19.1 µM (inactive) | 16.1 µM (inactive) | 22.6 µM (inactive) | 12.9 µM (inactive) | 16.5 µM (inactive) |  |  |  |  |
| CNC(C)Cc1ccccc1OC (stereo unspecified) [METHOXYPHENAMINE HYDROCHLORIDE] | > 100 µM (inactive) | > 100 µM (inactive) | > 100 | > 100 µM (inactive) | > 100 µM (inactive) | > 100 µM (inactive) | > 100 µM (inactive) | > 100 µM (inactive) | > 100 µM (inactive) | > 100 µM (inactive) | > 100 µM (inactive) | > 100 µM (inactive) | > 100 µM (inactive) | > 100 µM (inactive) | > 100 µM (inactive) | > 100 µM (inactive) |  |  |  |  |
